Measured values from ChEMBL document CHEMBL1126802, “Structure-affinity relationship studies on 5-HT1A receptor ligands. 1. Heterobicyclic phenylpiperazines with N4-alkyl substituents” (J Med Chem, 1993).

Columns and labels:
Opioid receptor [1] = target: T1, Opioid receptor (Mus musculus, UniProt P42866+P32300+P33534); experiment: Tested for displacement of radioligand [3H]-Naloxone from opiate receptor; value ranges from 7-10 uM; format: protein assay
[2] = Ionization at 25 degree C; format: ADME
[3] = Ionization at 37 degree C; format: ADME
[4] = target: T2, 5-hydroxytryptamine receptor 1A (Rattus norvegicus, UniProt P19327); experiment: Displacement of radioligand [3H]2-(di-N-propylamino)-8-hydroxytetralin from 5-hydroxytryptamine 1A receptor in rat frontal cortex homogenate; format: tissue-based
T2 sequence (P19327 whole entry): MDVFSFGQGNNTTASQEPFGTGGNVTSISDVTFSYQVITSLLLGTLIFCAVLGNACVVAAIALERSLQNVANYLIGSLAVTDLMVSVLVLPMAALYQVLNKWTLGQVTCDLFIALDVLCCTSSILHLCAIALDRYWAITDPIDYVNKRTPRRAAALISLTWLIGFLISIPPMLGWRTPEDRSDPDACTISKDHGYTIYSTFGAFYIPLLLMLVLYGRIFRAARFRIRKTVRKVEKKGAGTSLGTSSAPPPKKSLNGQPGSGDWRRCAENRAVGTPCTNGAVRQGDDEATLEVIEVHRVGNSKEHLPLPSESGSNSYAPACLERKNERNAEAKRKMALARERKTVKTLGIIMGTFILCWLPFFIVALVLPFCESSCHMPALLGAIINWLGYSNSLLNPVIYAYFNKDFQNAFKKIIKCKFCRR

[5] = Ionization at 45 degree C; format: ADME
[6] = Ionization at 20 degree C; format: ADME
[7] = Ionization at 30 degree C; format: ADME
Opioid receptor [8] = target: T1, Opioid receptor; experiment: Tested for displacement of radioligand [3H]-Naloxone from opiate receptor; format: protein assay
[9] = target: T2, 5-hydroxytryptamine receptor 1A; experiment: Displacement of radioligand [3H]2-(di-N-propylamino)-8-hydroxytetralin from 5-hydroxytryptamine 1A receptor in rat frontal cortex homogenate (experiment 1); format: tissue-based

| Structure (SMILES) | Ki [4] | IC50 (Opioid receptor [8]) | also measured |
| --- | --- | --- | --- |
| CCC(=O)C1(c2cccc(O)c2)CCN(C)CC1 [KETOBEMIDONE] |  |  | IC50 (Opioid receptor [1]): 7000 nM |
| CCCCCN1CCN(c2cccc3c2OCCO3)CC1 | 2.2 nM |  | pKa [2]: 8.27; pKa [3]: 8.06; pKa [5]: 7.91; pKa [6]: 8.41; pKa [7]: 8.21 |
| c1cc(N2CCN(C3CCCCC3)CC2)c2occc2c1 | 64 nM |  |  |
| CCCCCCCCN1CCC(C(=O)OCC)(c2ccccc2)CC1 |  | 30 nM |  |
| CCCCCCN1CCN(c2cccc3c2OCCO3)CC1 | 0.5 nM |  |  |
| CCCCCCCCCN1CCC(C(=O)CC)(c2cccc(O)c2)CC1 |  | 700000 nM |  |
| CCCCCCN1CCC(C(=O)CC)(c2cccc(O)c2)CC1 |  | 20000 nM |  |
| c1cc2c(c(N3CCNCC3)c1)OCCO2 [ELTOPRAZINE] |  |  | pKa [2]: 8.99; pKa [3]: 8.74; pKa [5]: 8.55; pKa [6]: 9.18; pKa [7]: 8.88 |
| CCCCN1CCC(C(=O)OCC)(c2ccccc2)CC1 |  | 900 nM |  |
| CCCCCCCCN1CCC(C(=O)CC)(c2cccc(O)c2)CC1 |  | 200000 nM |  |
| CCCCCCCN1CCC(C(=O)OCC)(c2ccccc2)CC1 |  | 55 nM |  |
| O=C1c2ccccc2S(=O)(=O)N1CCCCN1CCN(c2ncccn2)CC1 [IPSAPIRONE] | 5.5 nM |  |  |
| CCCCCCCN1CCC(C(=O)CC)(c2cccc(O)c2)CC1 |  | 20000 nM |  |
| CCCN1CCC(C(=O)OCC)(c2ccccc2)CC1 |  | 4000 nM |  |
| CCCCCCCCCCN1CCC(C(=O)CC)(c2cccc(O)c2)CC1 |  | 500000 nM |  |
| CCCCCN1CCC(C(=O)OCC)(c2ccccc2)CC1 |  | 400 nM |  |
| c1cc(N2CCN(CC3CCCCC3)CC2)c2occc2c1 | 7.7 nM |  |  |
| CC(C)N1CCN(c2cccc3ccoc23)CC1 | 56 nM |  |  |
| c1cc2c(c(N3CCN(CCC4CCCCC4)CC3)c1)OCCO2 | 0.25 nM |  |  |
| CCCN1CCN(c2cccc3c2OCCO3)CC1 | 80 nM |  | pKa [3]: 8.02; pKa [6]: 8.36 |
| c1cc(N2CCNCC2)c2occc2c1 | 13 nM |  | pKa [3]: 8.44; pKa [6]: 8.84 |
| c1cc2c(c(N3CCN(CC4CCCCC4)CC3)c1)OCCO2 | 11 nM |  |  |
| CCCCCCCCCN1CCC(C(=O)OCC)(c2ccccc2)CC1 |  | 150 nM |  |
| CC(C)CN1CCN(c2cccc3ccoc23)CC1 | 64 nM |  |  |

| Structure (SMILES) | Ki [4] | IC50 (Opioid receptor [8]) | also measured |
| --- | --- | --- | --- |
| CCOC(=O)C1(c2ccccc2)CCN(CC)CC1 |  | 5000 nM |  |
| CCCCN1CCC(C(=O)CC)(c2cccc(O)c2)CC1 |  | 50000 nM |  |
| CCCCN1CCN(c2cccc3c2OCCO3)CC1 | 12 nM |  | pKa [3]: 8.06; pKa [6]: 8.41 |
| CCN1CCN(c2cccc3c2OCCO3)CC1 |  |  | pKa [3]: 8; pKa [6]: 8.34 |
| CN1CCN(c2cccc3ccoc23)CC1 | 8.1 nM |  | pKa [3]: 7.54 |
| CCCCCN1CCC(C(=O)CC)(c2cccc(O)c2)CC1 |  | 8000 nM |  |
| CCCN1CCC(C(=O)CC)(c2cccc(O)c2)CC1 |  | 200000 nM |  |
| CCCN1CCN(c2cccc3ccoc23)CC1 | 29 nM |  | pKa [3]: 7.84 |
| CCCCCCN1CCN(c2cccc3ccoc23)CC1 | 0.54 nM |  |  |
| CCCCCCCCCCN1CCN(c2cccc3ccoc23)CC1 | 8 nM |  |  |
| CCC(=O)C1(c2cccc(O)c2)CCN(CC)CC1 |  | 400000 nM |  |
| Clc1cccc(N2CCNCC2)c1 [CHLOROPHENYLPIPERAZINE] |  |  | pKa [2]: 8.6; pKa [3]: 8.36; pKa [5]: 8.12; pKa [6]: 8.72; pKa [7]: 8.46; Ki [9]: 200 nM |
| CCCCCCCCCCN1CCN(c2cccc3c2OCCO3)CC1 | 1 nM |  |  |
| COc1ccccc1N1CCNCC1 | 170 nM |  |  |
| CCCCN1CCN(c2cccc3ccoc23)CC1 | 5.9 nM |  | pKa [3]: 7.77 |
| CCCCCN1CCN(c2cccc(Cl)c2)CC1 |  |  | pKa [2]: > 7.4; pKa [3]: > 7.2; pKa [5]: > 7; pKa [6]: > 7.4; pKa [7]: > 7.5; Ki [9]: 7.8 nM |
| CCCCCCCCN1CCN(c2cccc3c2OCCO3)CC1 | 0.61 nM |  |  |
| CCCCCCCCN1CCN(c2cccc3ccoc23)CC1 | 1.7 nM |  |  |
| CCCCCCN1CCC(C(=O)OCC)(c2ccccc2)CC1 |  | 200 nM |  |
| c1cc(N2CCN(CC3CC3)CC2)c2occc2c1 | 20 nM |  |  |
| CN1CCN(c2cccc3c2OCCO3)CC1 | 24 nM |  | pKa [3]: 7.77; pKa [6]: 8.07 |
| CCN1CCN(c2cccc3ccoc23)CC1 | 23 nM |  | pKa [3]: 7.79 |
| CCCCCN1CCN(c2cccc3ccoc23)CC1 | 0.81 nM |  | pKa [3]: > 7.7 |
